# Measured values taken from patent US20220175721A1, “TREATMENT FOR POLYCYSTIC OVARIAN SYNDROME (PCOS)” (Cadila Healthcare Limited, priority 2019, published 2022).
# Several values for one entry are separate records, joined by “and”; a condition that tells them apart may be missing. Equal values may be shown once.
# How the values were obtained:
# Format in all cases: in vivo
# [1] = test system: letrozole-induced PCOS in female Zucker fa/fa rats; assay: Insulin tolerance test in letrozole-induced PCOS rats; settings: (Ia) 4 mg/kg
# Experimental: (§1) Female Zucker fa/fa rats (6-8 weeks) were issued from animal house of Zydus research Centre and quarantined for 7 weeks. At the age of 13-15 weeks all animals were administered Letrozole (1 mg/kg/2 ml) orally for 4 weeks to induce PCOS.
# (§2) After 4 weeks of Letrozole, all animals with confirmed PCOS on basis of body weight and estrous cycle were randomized. […] Letrozole (1 mg/kg/2 mL) treatment was continued.
# Continuing compound of formula (Ia) treatment for next two days, insulin tolerance test was performed after 6 h fast. […] Whole blood glucose was estimated using One-touch ultra-blood glucose meter. Blood glucose levels were then estimated at 0, 15, 30, 60 and 120 min corresponding to the insulin injection.
# [2] = test system: Letrozole-induced polycystic ovary syndrome (PCOS) in female Wistar rats; assay: Histological count of cystic follicles in letrozole-induced PCOS rats
# Experimental: Sixty female Wistar rats (7-8 weeks) were issued from animal house of Zydus research Centre and quarantined for 4 weeks. At the age of 11-12 weeks all animals were randomized on body weight basis into two treatment groups, namely, vehicle (n=10) as non-PCOS or Letrozole (n=50) for PCOS. Formulated Letrozole (1 mg/kg/2 ml) were administered orally for 4 weeks to induce PCOS.
# After 4 weeks of Letrozole, all animals with confirmed PCOS on basis of body weight and estrous cycle were randomized. After randomization, animals were assigned to either Vehicle control or Compound of Formula (Ia) (4 mg/kg, PO) treatment (n=8). Letrozole (1 mg/kg/2 mL) treatment was continued. Rest of the animals was sacrificed.
# At the end of treatment, animals were sacrificed by cervical dislocation and ovaries were collected in 10% formalin. Ovaries were processed and embedded in paraffin and subjected to serial sectioning at 3-5 μm using rotary microtome, and sections were transferred on glass slides and stained with haematoxylin-eosin (H and E). The evaluation was done using light microscope and grading of the tissue pathological status was done. Total numbers of cystic follicles were counted on all sections throughout each ovary.
# [3] = test system: letrozole-induced PCOS in female Zucker fa/fa rats; assay: Serum LH, FSH and testosterone (ELISA) in letrozole-induced PCOS rats; settings: (Ia) 4 mg/kg
# Experimental: as §1, §2
# After 4 weeks of compound of formula (Ia) treatment, Insulin was subcutaneously injected at 1.5 U/kg regular insulin and 2 g/kg glucose load was administered orally. Blood was collected 40 min following injection. Serum samples were analyzed for LH, FSH and testosterone using ELISA kit according to manufacturer's instructions.
# [4] = test system: letrozole-induced PCOS in female Zucker fa/fa rats; assay: Ovaries weight in letrozole-induced PCOS rats; settings: (Ia) 4 mg/kg; for Ovaries weight, % Change Vs Vehicle Control / Ovaries weight: after 4 weeks of oral treatment, metformin 200 mg/kg; for Ovaries weight: Mean±SEM, n=6
# Experimental: as §1, with “PCOS. […] Letrozole (1 mg/kg/2 mL) treatment was continued. At the end of study, animals were sacrificed by cervical dislocation and ovaries were collected and weighed.” for “PCOS.”
# [5] = repeated dose oral treatment, alone or with metformin 200 mg/kg
# [6] = 4 mg/kg, individual animal mean of 6 sections
# [7] = 4 mg/kg, individual animal, ovary sections 1-6
# [8] = after 4 weeks of oral treatment, metformin 200 mg/kg
# [9] = after 4 weeks of oral treatment, metformin 200 mg/kg, Mean±SEM, n=6
smiles,measurement,setting,value
"CCO[C@@H](Cc1ccc(OCCn2c(C)ccc2-c2ccc(SC)cc2)cc1)C(=O)O [Compound of Formula (Ia), Saroglitazar Magnesium]","AUC glucose, % Change Vs Vehicle Control","[1]; insulin tolerance test after 4 weeks of oral treatment, metformin 200 mg/kg",−37.4 ± 4.9%
same,AUC glucose (120 min*mg/dL),"[1]; insulin tolerance test after 4 weeks of oral treatment, metformin 200 mg/kg, Mean±SEM, n=6",6819.0 ± 535.8 mg·min/dL
same,insulin sensitivity (in words),[1]; [5],significantly improved
same,"cystic follicles, Mean of ovary sections, Animal-9",[2]; [6],3.50
same,"cystic follicles, Mean of ovary sections, Animal-10",[2]; [6],3.50
same,"cystic follicles, Mean of ovary sections, Animal-11",[2]; [6],7.50
same,"cystic follicles, Mean of ovary sections, Animal-12",[2]; [6],3.83
same,"cystic follicles, Mean of ovary sections, Animal-13",[2]; [6],2.00
same,"cystic follicles, Mean of ovary sections, Animal-14",[2]; [6],4.67
same,"cystic follicles, Mean of ovary sections, Animal-15",[2]; [6],3.83
same,"cystic follicles, Mean of ovary sections, Animal-16",[2]; [6],9.50
same,"cystic follicles per ovary section, Animal-9",[2]; [7],4 (3×) and 3 (3×)
same,"cystic follicles per ovary section, Animal-10",[2]; [7],3 (3×) and 4 (3×)
same,"cystic follicles per ovary section, Animal-11",[2]; [7],7 (3×) and 8 (3×)
same,"cystic follicles per ovary section, Animal-12",[2]; [7],4 and 3 (3×) and 5 (2×)
same,"cystic follicles per ovary section, Animal-13",[2]; [7],2
same,"cystic follicles per ovary section, Animal-14",[2]; [7],5 (4×) and 4 (2×)
same,"cystic follicles per ovary section, Animal-15",[2]; [7],4 and 3 (3×) and 5 (2×)
same,"cystic follicles per ovary section, Animal-16",[2]; [7],11 (3×) and 10 and 2 and 12
same,"Number of cystic follicle, % Change Vs Vehicle control","[2]; after 4 weeks of treatment, 4 mg/kg PO",−56.6 ± 7.9%
same,Number of cystic follicle,"[2]; after 4 weeks of treatment, 4 mg/kg PO, Mean ± SEM, n=8",4.79 ± 0.87
same,occurrence of cystic follicles (in words),"[2]; female Wistar rats, PCOS induced using Letrozole",significantly decreased
same,"LH/FSH ratio, % Change Vs Vehicle Control",[3]; [8],−17.1 ± 6.0%
same,"Serum FSH, % Change Vs Vehicle Control",[3]; [8],32.3 ± 4.5%
same,"Serum LH, % Change Vs Vehicle Control",[3]; [8],9.9 ± 7.4%
same,"Serum testosterone, % Change Vs Vehicle Control",[3]; [8],−61.8 ± 4.7%
same,LH/FSH ratio,[3]; [9],1.2 ± 0.1
same,Serum FSH,[3]; [9],103.1 ± 3.5 ng/mL
same,Serum LH,[3]; [9],121.4 ± 8.2 ng/mL
same,Serum testosterone,[3]; [9],1.6 ± 0.2 ng/mL
same,LH/FSH ratio (in words),[3]; repeated dose oral treatment,decreased
same,serum FSH (in words),[3]; repeated dose oral treatment,increased
same,serum testosterone (in words),[3]; [5],decreased
same,"Ovaries weight, % Change Vs Vehicle Control",[4],−20.7 ± 3.5%
same,Ovaries weight,[4],137.2 ± 6.1 mg
same,ovary weight (in words),[4]; [5],normalized
"CN(C)C(=N)N=C(N)N [Metformin, reference compound]","Serum FSH, % Change Vs Vehicle Control",[3]; [8],4.4 ± 3.6%
same,"Serum LH, % Change Vs Vehicle Control",[3]; [8],0.81 ± 3.1%
same,"Serum testosterone, % Change Vs Vehicle Control",[3]; [8],−2.4 ± 4.1%
same,Serum FSH,[3]; [9],85.3 ± 3.2 ng/mL
same,Serum LH,[3]; [9],109.6 ± 9.2 ng/mL
same,Serum testosterone,[3]; [9],4.0 ± 0.9 ng/mL
same,"Ovaries weight, % Change Vs Vehicle Control",[4],−2.4 ± 4.1%
same,Ovaries weight,[4],169.8 ± 11.9 mg
